# Laboratory results from patent US8637470B2, “Small humanin-like peptides” (The Regents of the University of California, priority 2008, dated 2014).
# “Also recorded” adds a separate entry of the source.
# How the values were obtained:
# [1] = system: 22RV1 human prostate cancer cells; test: Apoptosis ELISA (fragmentation of histone-associated DNA) in 22RV1 cells; format: cell-based; settings: for Protective effect of SHLP on apoptosis after stattic pre-treatment: 22RV1, 20 μM stattic (STAT3 inhibitor), 100 nM peptide; for Effect of SHLP on apoptosis after PD98059 pre-treatment: 22RV1, 25 μM PD98059 (ERK1/2 inhibitor); for Apoptosis (fragmentation of histone-associated DNA): 22RV1, serum starved 24 h, then 24 h with 100 μM peptide
# Experimental: SHLPs are anti-apoptotic in 22RV1 prostate cancer cells and NIT-1 β-cells. […] Mouse NIT-1 insulinoma β-cells and 22RV1 human prostate cancer cells were serum starved for 24 h, followed by 24 h incubation with 100 nM scrambled control peptide, HN or SHLPs. Apoptosis was assessed and quantified by ELISA for fragmentation of histone-associated DNA.
# ERK activation is necessary for SHLP-induced inhibition of apoptosis in NIT-1 and 22RV1 cells. To determine the significance of ERK activation for apoptosis inhibition by SHLPs 2 and 3, PD98059 (PD), a specific chemical inhibitor of ERK1/2, was utilized. 22RV1 and NIT-1 cells were serum starved for 24 h in the presence or absence of 25 μM PD or 1 μM wortmannin (PI3-kinase inhibitor; negative control), followed by 24 h incubation with […] scrambled control peptide, SHLP2 or SHLP3. Apoptosis was then assessed by ELISA for fragmentation of histone-associated DNA.
# STAT3 Activation is also necessary for SHLP-induced cell survival in 22RV1 cells. Since SHLPs 2 and 3 both stimulate STAT3 phosphorylation in addition to ERK activation, the hypothesis that STAT3 activation occurs downstream of ERK1/2 was tested using a specific chemical inhibitor against STAT3, stattic. 22RV1 cells were incubated for 24 h in SF media in the presence or absence of 20 μM stattic followed by 24 h incubation with 100 nM scrambled control peptide, SHLP2 or SHLP3. Apoptosis was assessed by ELISA for fragmentation of histone-associated DNA. […]
# ERK = ERK activation in 22RV1 cells (immunoblotting, ELISA); format: cell-based, human; settings: 22RV1, 100 nM; for ERK activation profile (immunoblotting): 15 min to 24 h
# Experimental: Characterization of the intracellular signaling pathways activated by SHLPs. To determine a mechanism for the growth and apoptosis effects of SHLPs, SHLPs were tested for the ability to modulate activation of intracellular signaling pathways. 22RV1 cells in SF media were treated with 100 nM SHLP 1-5 and whole cell extracts were harvested after 15 min, 30 min, 2 h, 4 h, 8 h and 24 h. Proteins were separated by SDS-PAGE and analyzed by immunoblotting.
# To test the hypothesis that SHLPs may act in concert to regulate intracellular signaling, 22RV1 cells were co-treated with SHLPs 2 and 3, and ERK activation was assessed.
# (§1) Since HN causes activation of STAT3, SHLPs 2 and 3 were also tested for effects on STAT3. […] To more accurately quantify the ERK phosphorylation caused by SHLPs 2 and 3, we repeated the experiment as described above but used a commercially available ERK ELISA to assess ERK phosphorylation. Optimal ERK activation by SHLP2 was 9-fold after 24 h, whilst optimal activation by SHLP3 was 12-fold after 2 h (FIG. 5).
# STAT3 = STAT3 activation in 22RV1 cells (immunoblotting); format: cell-based, human; settings: 22RV1, 100 nM
# Experimental: as §1
# biotinylated-HN = biotinylated-HN (Homo sapiens, UniProt Q8IVG9); test: Dot-blot binding to biotinylated-HN; settings: 2, 5 or 10 nmol peptide dotted on nitrocellulose
# Experimental: To test a dimerization hypothesis, we performed a dot-blot using biotinylated-HN. Two, 5 or 10 nmol IGF-I (negative control), HN (positive control) or SHLP peptide were dotted on to nitrocellulose membrane, and their ability to bind to biotinylated-HN was assessed immunologically. […] Specific interactions that occur may be determined using, e.g., dot blots with biotinylated SHLPs, and/or antibodies against specific SHLPs.
# HAEC'S = test: Intracellular ROS production (DHE fluorescence) in HAEC; format: cell-based; settings: 0.1 nM peptide over night, oxidized LDL 100 μg protein/ml 30 min
# Experimental: SHLPs suppress intracellular production of Reactive Oxygen Species (ROS). ROS production was monitored by following the conversion of the oxidant-sensitive dye dihydroethidine to the fluorescent ethidium (DHE) for measuring the cellular ability to produce Reactive Oxygen Species. HAEC'S plated on glass cover slips were incubated over night with 0.1 nM SHLP2 or SHLP6 versus regular cultured medium. For ROS measurement, cells were incubated for 30 min with 10 μM DHE in HBSS containing calcium magnesium and glucose at 37° c. Then cells were treated with Oxidized LDL 100 μg protein/ml for 30 minutes at 37° c. Samples were imaged under fluorescence microscope with a Texas Red filter corresponding to the fluorescence of DHE. Average fluorescence intensity was used to evaluate the changes of intracellular ROS generation, results are expressed in relative fluorescence unit (RFU) representing average intensity per cell area.
# biotinylated-HN, sequence (Q8IVG9 whole entry): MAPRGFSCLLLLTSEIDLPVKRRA
sequence,measurement,setting,value
"MLGYNFSSFPCGTISIAPGFNFYRLYFIWVNGLAKVVW [SHLP3, small humanin-like peptide, mtDNA 1707-1821]",Protective effect of SHLP on apoptosis after stattic pre-treatment,[1],abrogated the protective effects
same,Effect of SHLP on apoptosis after PD98059 pre-treatment,[1],abrogated
same,Apoptosis (fragmentation of histone-associated DNA),[1],significantly inhibited
same,Time to ERK activation,ERK,≤ 2 min
same,ERK activation profile (immunoblotting),ERK,activated ERK rapidly
same,Optimal ERK activation (ELISA),ERK; after 2 h,12 fold
same,STAT3 activation (immunoblotting),STAT3,significantly enhanced STAT3 activation
"MGVKFFTLSTRFFPSVQRAVPLWTNS [SHLP2, small humanin-like peptide, mtDNA 2092-2170]",SHLP-induced cell survival after wortmannin pre-treatment,"[1]; 22RV1, 1 μM wortmannin (PI3-kinase inhibitor)",inhibited SHLP2-induced cell survival
same,Protective effect of SHLP on apoptosis after stattic pre-treatment,[1],abrogated the protective effects
same,Effect of SHLP on apoptosis after PD98059 pre-treatment,[1],abrogated
same,Apoptosis (fragmentation of histone-associated DNA),[1],significantly inhibited
same,ERK activation profile (immunoblotting),ERK,delayed but sustained activation after 8 h
same,Optimal ERK activation (ELISA),ERK; after 24 h,9 fold
same,Binding to biotinylated-HN (dot-blot),biotinylated-HN,weak interaction; also recorded: binds
same,STAT3 activation (immunoblotting),STAT3,significantly enhanced STAT3 activation
same,Intracellular ROS production (DHE fluorescence),HAEC'S,suppresses ROS production; also recorded: suppresses production of reactive oxygen species
